From US9814659B2, “Methods of lightening the skin” (Johnson & Johnson Consumer Inc., priority 2012, dated 2017)

Test system: MatTek's MelanoDerm skin epidermal equivalent tissues (MEL-300-B; NHEK and NHM)
Test: Skin Epidermal Equivalents Model as a Skin Lightening Test (ΔL)
Assay type: cell-based, human
Excerpt: Skin Epidermal Equivalents Model as a Skin Lightening Test (ΔL)
Skin epidermal equivalent tissues are available commercially from MatTek's MelanoDerm™ System and were used for the following tests. MatTek's MelanoDerm™ System consists of normal, human-derived epidermal keratinocytes (NHEK) and melanocytes (NHM) which have been cultured to form a multilayered, highly differentiated model of the human epidermis. Specifically, MEL-300-B tissues, each 9 mm in diameter were used in the following tests.
The test materials prepared in an appropriate vehicle and tested concentrations were applied topically to the skin model daily and the experiment lasted for 8 days. Measurement was taken on day 9.
The macroscopic and microscopic visual tissue darkening end points were measured by taking pictures with a digital camera. The Degree of Lightness for each tissue (L-Value) was measured using a spectrophotometer (Konica Minolta CM-2600d). The ΔL (degree of lightness as compared to control) for each test sample is calculated as per following formula: ΔL=L-value of treated sample−L-value of control sample.

CC(C)=CCCC(C)=CCCC(C)=CCOc1ccc(CCC(=O)O)cc1 [M-1, 3-(4-Farnesyloxyphenyl)propionic acid]
Skin Lightening (ΔL Value) (concentration 0.5%, topical daily for 8 days, measured day 9): 1.2 | Skin lightening efficacy compared with first extract E1 (same concentration (0.5%) as E1): equal to first extract E1
